The values below come from ChEMBL document CHEMBL5131538 (J Med Chem, 2022).

Data set [1] can be described thus: Volume of distribution at steady state in Sprague-Dawley rat at 1 mg/kg, iv. It counts as ADME, organism-based. The settings on record: in vivo, read-out: Vdss.
For data set [2], the system named is Rattus norvegicus. Kind of data set: Organ protective activity in aldosterone-induced uninephrectomized Sprague-Dawley rat model assessed as myocardial fibrosis in heart by measuring pathological lesion score at 10 mg/kg/day by sirius red and H and E staining based histological analysis (reference value: 1.6 +/- 0.3). In kind it is functional.
Data set [3] is described as follows: AUC (0 to infinity) in Sprague-Dawley rat at 1 mg/kg, iv. It counts as ADME, organism-based. Also on record: time infinity, dose 1 mg/kg, route iv. The settings on record: in vivo.
Data set [4] can be described thus: Antagonist activity at human mineralocorticoid receptor S810L mutant expressed in CHO-K1 cells assessed as inhibition of aldosterone-induced transcriptional activity incubated for 24 hrs in presence of 0.5 nM aldosterone by Steady-Glo reagent based reporter gene assay. The settings on record: CHO-K1, 24 h. It counts as cell-based. A general note: Reporter assays use an easily measured gene product as a stand-in for the process of interest.

Data set [5] relates to Rattus norvegicus. Briefly: Organ protective activity in aldosterone-induced uninephrectomized Sprague-Dawley rat model assessed as myocardial fibrosis in heart by measuring pathological lesion score at 3 mg/kg/day by sirius red and H and E staining based histological analysis (reference value: 1.6 +/- 0.3). In kind it is functional.

With `CC1(C)Oc2cc(NS(C)(=O)=O)ccc2N(c2ccc(F)cc2)C1=O` [MT-3995], the Vd in data set [1] turned out to be 1.08 L/kg. For the same compound, the figures for the Activity with Rattus norvegicus [2] and in the data set on Rattus norvegicus [5] were 0 and 0.3, respectively. For the same compound, the AUC(0-inf) (as a rule, total exposure, with the tail of the curve extrapolated) in data set [3] was found to be 10200 ng·h/mL. Besides, the IC50 – broadly, the midpoint of a concentration-inhibition curve – in data set [4] was 288 nM.
